Laboratory results taken from US10308938B2, “Compositions and methods to activate or inhibit toll-like receptor signaling” (priority 2014, dated 2019).
Entries after “also recorded” stand apart in the source; their conditions may differ.

How the values were obtained:
Assay type in all cases: cell-based, human
CD4^+ T cells [1] = experiment: Intracellular calcium measurement (INDO-1AM)
Protocol: Intracellular calcium measurements. Ex vivo isolated CD4^+ T cells were labeled with 5 μM INDO-1AM for one hour at 37° C. in PBS, 1 mM Ca^2+. Cells were washed to remove traces of INDO-1AM, resuspended in buffer at 10^6 cells/ml and incubated for 30 minutes at 37° C. before analysis. When necessary, IRS661 was added at the indicated concentration during the 30 minute incubation. For acquisition, the sample was acquired for approximately 3 minutes to obtain basal levels of calcium and subsequently IMQ or other reagents were added at the indicated concentrations. Samples were acquired for a minimum of 10 minutes on a BD Fortessa instrument and analysed with FlowJo software.

CD4^+ T cells [2] = experiment: Cytokine gene expression in stimulated CD4+ T cells, TaqMan real-time PCR; settings: 12 hours after activation
Source text: (§1) Quantification of mRNA expression levels by RT-PCR. RNA was isolated using QIAGEN RNeasy Micro Plus Kit (QIAGEN, Valencia, Calif.), following manufacturer's guidelines and converted to cDNA by reverse transcription (RT) with random hexamers and Multiscribe RT (TQMN, Reverse Transcription Reagents; Applied Biosystems, Foster City, Calif.). For mRNA gene expression assays, probes were purchased from Applied Biosystems (Table 2) and the reactions were set up following manufacturer's guidelines and run on a StepOne Real-Time PCR System (Applied Biosystems). Values are represented as the difference in Ct values normalized to β2-microglobulin for each sample as per the following formula: Relative RNA expression=(2^−dCt)×1000.

NFAT1 = NFAT1 dephosphorylation, Western blot; settings: 0, 45 and 90 minutes; confirmed with phospho-specific antibody, 40 minutes
Protocol: Western blotting. Total protein extracts were isolated with M-PER protein extraction kit (Thermo Scientific) and quantified with a BCA kit (Thermo Scientific). 20 μg of protein extract were loaded per lane, separated on a 10% SDS-PAGE gel and transferred to a nitrocellulose membrane. anti-NFAT1 and anti-β-actin were obtained from Cell Signaling Technology. Anti-pNFAT1 (Ser213/217/229) antibody was obtained from Santa Cruz Biotechnology (Dallas, Tex.). Primary antibodies were detected by secondary anti-rabbit-HRP-conjugated (Cell Signaling Technology) and images were obtained in a CCD camera instrument. Bands were quantified with QuantityOne software.
An immediate consequence of increased concentration of intracellular calcium is the activation of the nuclear factor of activated T-cells (NFAT1), a transcription factor that is highly phosphorylated in resting cells and becomes dephosphorylated by the calcium/calmodulin-dependent phosphatase calcineurin when the concentration of intracellular calcium is increased. To examine whether IMQ stimulation induced the dephosphorylation of NFAT1, we stimulated CD4^+ T cells with IMQ and purified total protein extracts at 0, 45 and 90 minutes (FIG. 25A).

memory T cells = experiment: IMQ pretreatment, washout, rest and restimulation with anti-CD3 and anti-CD28; settings: IMQ 2 hours, 12 hours rest, anti-CD3 and anti-CD28
Protocol: (§2) Enzyme-linked immunosorbent assay.
To determine if pretreatment of CD4^+ T cells with IMQ would be sufficient to diminish their subsequent cytokine secretion and proliferative response to a full stimulation, memory T cells were pre-treated with IMQ for 2 hours and rested for 12 hours after washout to remove traces of IMQ and then stimulated with anti-CD3 and anti-CD28 for 3 days.

CD4^+ T cells [3] = experiment: Phosphorylation status of signaling molecules by flow cytometry; Jun gene expression
Source text: TLR7 signaling has predominantly been studied in APC where it is linked to IRF7, NFκB and JNK activation through either MyD88/IRAK4-dependent or -independent pathways. In order to examine the consequences of TLR7 signaling on CD4^+ T cells in relation to ‘conventional’ TLR signaling, ex vivo isolated CD4^+ T cells from healthy individuals were stimulated with IMQ and the phosphorylation status of IRAK4, JNK, NFkB (p65), p38 MAPK and IRF7 was examined by flow cytometry (FIG. 31A). […] One of the targets that are phosphorylated by activated JNK is Jun, a component of AP-1, which is an essential transcription factor involved in costimulatory signal transduction. It was determined if inhibition of JNK activity by IMQ could explain, at least in part, the anergic phenotype observed in CD4^+ T cells after IMQ stimulation in the presence of full stimulation with TCR and costimulatory signals. To test this hypothesis, CD4^+ T cells were stimulated with PMA and Ionomycin in the presence or absence of IMQ, and the phosphorylation status of JNK and Jun was examined at different time points. NFκB and p38 were used as positive controls (FIGS. 31B and 31C).

CD4^+ T cells [4] = experiment: Intracellular cytokine staining after PMA and ionomycin restimulation; settings: increasing doses of IMQ; day 4, 4 hour PMA and ionomycin
Protocol: Cell activation and intracellular staining. T populations were stimulated with 1 μg/ml anti-CD3, 1 μg/ml anti-CD28 and 10 U/ml IL-2 in the presence or absence of TLR ligands. […] For both extracellular and intracellular stainings, LIVE/DEAD reagent (Molecular Probes) was used to exclude dead cells before surface staining. […] Samples were run on a BD Fortessa instrument and analyzed with FlowJo (TreeStar).

CD4^+ T cells [5] = experiment: Conversion into regulatory T cells (Foxp3 expression, IL-10 secretion)
Source text: Cell activation and intracellular staining.
as §2

CD4^+ T cells [6] = experiment: Anergy-related gene expression, TaqMan real-time PCR
Source text: as §1
To examine whether TLR7 stimulation and subsequent NFAT dephosphorylation induces the expression of anergy-related genes, CD4^+ T cells were incubated for 2-16 hours with IMQ in the presence or absence of the TLR7 inhibitory sequence IRS661 and RNA was isolated to examine the hypothesis that TLR7 engagement induced expression of anergy-related genes previously described. As a control for anergy-related gene expression, CD4^+ T cells were incubated with either ionomycin and PMA or ionomycin alone. […] The effect observed in the regulation of these genes was TLR7-specific, as preincubation of CD4^+ T cells with IRS661 before IMQ treatment abrogated the increase in anergy-related gene expression.

[7] = with PMA and Ionomycin stimulation
[8] = with PMA and Ionomycin stimulation, listed as IMQ

CC(C)Cn1cnc2c(N)nc3ccccc3c21 [Imiquimod]
duration of the increase in intracellular calcium concentration (CD4^+ T cells [1]): at least 20 minutes | intracellular calcium concentration (CD4^+ T cells [1]; INDO-1AM ratio over time): significant and sustained (maintained for at least 20 minutes, FIGS. 23A and 23B) increase | induction of IFNγ gene expression (CD4^+ T cells [2]): significant decrease | induction of IL-2 gene expression (CD4^+ T cells [2]): significant decrease | induction of IL-4 gene expression (CD4^+ T cells [2]): significant decrease | phosphorylation state of NFAT1 (NFAT1): dephosphorylated | IFNγ production after restimulation (memory T cells): significantly decreased | IL-2 production after restimulation (memory T cells): significantly decreased | phosphorylation of IRAK4 (CD4^+ T cells [3]; IMQ alone vs vehicle): induced | phosphorylation of IRF7 (CD4^+ T cells [3]; IMQ alone vs vehicle): induced | phosphorylation of NFκB (CD4^+ T cells [3]; IMQ alone vs vehicle): induced | phosphorylation of p38 (CD4^+ T cells [3]; IMQ alone vs vehicle): induced | phosphorylated JNK (CD4^+ T cells [3]; IMQ alone vs vehicle, basal levels): decreased the basal levels | Jun gene expression (CD4^+ T cells [3]; after stimulation): decreased | NFκB phosphorylation (CD4^+ T cells [3]; [7]): did not show an additive effect | p38 phosphorylation levels (CD4^+ T cells [3]; [7]): further increased | JNK phosphorylation (CD4^+ T cells [3]; [8]): inhibited; also recorded: decreased | Jun phosphorylation (CD4^+ T cells [3]; [8]): decreased | frequency of cytokine-producing cells (CD4^+ T cells [4]): diminished in a dose-dependent manner | IL-10 secretion (CD4^+ T cells [5]; ELISA day 3): neither Foxp3 expression (FIG. 11B-11C) or IL-10 secretion was increased | Foxp3 expression (CD4^+ T cells [5]; day 4): neither Foxp3 expression (FIG. 11B-11C) or IL-10 secretion was increased | expression of Sirt1, Itch, Cblb, Dgka, Egr2 and Egr3 (CD4^+ T cells [6]; IMQ treatment, 2 hours): all of them but Egr2 showed a significant upregulation | expression of anergy-related genes (CD4^+ T cells [6]; NFAT1-deficient cells vs non-target transduced, IMQ 2 hours): failed to upregulate | expression of 12 anergy-related genes (CD4^+ T cells [6]; compared to control and PMA and ionomycin): Ten of the 12 anergy-related genes examined were significantly upregulated
